Laboratory results taken from PubChem BioAssay AID1963845 (Molecular Pharmacology Branch, DTP, NCI, 2024).

System: 429239-143-T-J1-PDC complex spheroid viability
Assay: Anticancer human tumor 429239-143-T-J1-PDC patient-derived small cell lung carcinoma cell line growth inhibition [POLQ]
Details: for IC50: curve of first compound; for viability, T/C: stronger effect = lower value
Method in brief: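 Three-cell-type spheroids modelling solid tumor plus stroma served as the readout system; POL inhibitors were tested individually and in combination, concentration ranges set by clinical Cmax where known.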

[1] = second compound 0.0316 µM, first compound 0.00316 µM
[2] = second compound 0.0316 µM, first compound 0.01 µM
[3] = second compound 0.0316 µM, first compound 0.0316 µM
[4] = second compound 0.0316 µM, first compound 0.1 µM
[5] = second compound 0.1 µM, first compound 0.00316 µM
[6] = second compound 0.1 µM, first compound 0.01 µM
[7] = second compound 0.1 µM, first compound 0.0316 µM
[8] = second compound 0.1 µM, first compound 0.1 µM
[9] = second compound 0.316 µM, first compound 0.00316 µM
[10] = second compound 0.316 µM, first compound 0.01 µM
[11] = second compound 0.316 µM, first compound 0.0316 µM
[12] = second compound 0.316 µM, first compound 0.1 µM
[13] = second compound 1 µM, first compound 0.00316 µM
[14] = second compound 1 µM, first compound 0.01 µM
[15] = second compound 1 µM, first compound 0.0316 µM
[16] = second compound 1 µM, first compound 0.1 µM
[17] = second compound 3.16 µM, first compound 0.00316 µM
[18] = second compound 3.16 µM, first compound 0.01 µM
[19] = second compound 3.16 µM, first compound 0.0316 µM
[20] = second compound 3.16 µM, first compound 0.1 µM
[21] = second compound 10 µM, first compound 0.00316 µM
[22] = second compound 10 µM, first compound 0.01 µM
[23] = second compound 10 µM, first compound 0.0316 µM
[24] = second compound 10 µM, first compound 0.1 µM
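Note: luminescence signal used as surrogate measure of viable cells; spheroids exposed to compounds for seven days before readout.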
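Throughout, for viability, T/C: 100% = DMSO vehicle control viability as luminescence relative to vehicle.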

Molecule CC[C@@]1(O)C(=O)OCc2c1cc1n(c2=O)Cc2cc3c(CN(C)C)c(O)ccc3nc2-1 + Cc1cccc(N(C)C(=O)C2C(O)CCN2c2nc(C)cc(C(F)(F)F)c2C#N)c1 has an IC50 (second compound 0.0316 µM) of 10.5 nM, an IC50 (second compound 0.1 µM) of 15.5 nM and an IC50 (second compound 0.316 µM) of 15.5 nM. The IC50 (second compound 1 µM) was 15.3 nM, the IC50 (second compound 3.16 µM) was 12.7 nM and the IC50 (second compound 10 µM) was 12.8 nM. For the same molecule, the viability, T/C (second compound 0.0316 µM, first compound 0.000316 µM) was 102%, the viability, T/C (second compound 0.0316 µM, first compound 0.001 µM) was 98.8% and the viability, T/C [1] was 94.6%. It also gave a viability, T/C [2] of 51.7%, a viability, T/C [3] of 18.5% and a viability, T/C [4] of 18.2%. It also gave a viability, T/C (second compound 0.1 µM, first compound 0.000316 µM) of 100%, a viability, T/C (second compound 0.1 µM, first compound 0.001 µM) of 106% and a viability, T/C [5] of 96.3%. The viability, T/C [6] was 69.9%, the viability, T/C [7] was 15.8% and the viability, T/C [8] was 18.5%. It also gave a viability, T/C (second compound 0.316 µM, first compound 0.000316 µM) of 102%, a viability, T/C (second compound 0.316 µM, first compound 0.001 µM) of 107% and a viability, T/C [9] of 88.7%. It also gave a viability, T/C [10] of 70.3%, a viability, T/C [11] of 14.9% and a viability, T/C [12] of 18.3%. It also gave a viability, T/C (second compound 1 µM, first compound 0.000316 µM) of 99.1%, a viability, T/C (second compound 1 µM, first compound 0.001 µM) of 105% and a viability, T/C [13] of 103%. The viability, T/C [14] was 68.8%, the viability, T/C [15] was 17.9% and the viability, T/C [16] was 16.9%. The viability, T/C (second compound 3.16 µM, first compound 0.000316 µM) was 106%, the viability, T/C (second compound 3.16 µM, first compound 0.001 µM) was 90.4% and the viability, T/C [17] was 94.2%. It also gave a viability, T/C [18] of 58%, a viability, T/C [19] of 19.3% and a viability, T/C [20] of 18.9%. For the same molecule, the viability, T/C (second compound 10 µM, first compound 0.000316 µM) was 101%, the viability, T/C (second compound 10 µM, first compound 0.001 µM) was 96.2% and the viability, T/C [21] was 94.3%. The viability, T/C [22] was 57.9%, the viability, T/C [23] was 20.4% and the viability, T/C [24] was 19.6%.
For CCc1c2c(nc3ccc(O)cc13)-c1cc3c(c(=O)n1C2)COC(=O)[C@]3(O)CC + COC1C(OC(N)=O)C(O)C(Oc2ccc3c(O)c(NC(=O)c4ccc(O)c(CC=C(C)C)c4)c(=O)oc3c2C)OC1(C)C, the IC50 (second compound 0.0316 µM) was less than 3.16 nM, the IC50 (second compound 0.1 µM) was less than 3.16 nM and the IC50 (second compound 0.316 µM) was less than 3.16 nM. For the same molecule, the IC50 (second compound 1 µM) was less than 3.16 nM, the IC50 (second compound 3.16 µM) was less than 3.16 nM and the IC50 (second compound 10 µM) was less than 3.16 nM. It also gave a viability, T/C [1] of 19.1%, a viability, T/C [2] of 17.6% and a viability, T/C [3] of 17.5%. The viability, T/C [4] was 20%, the viability, T/C (second compound 0.0316 µM, first compound 0.316 µM) was 17.5% and the viability, T/C (second compound 0.0316 µM, first compound 1 µM) was 8.92%. It also gave a viability, T/C [5] of 17%, a viability, T/C [6] of 17.4% and a viability, T/C [7] of 17.8%. For the same molecule, the viability, T/C [8] was 20.6%, the viability, T/C (second compound 0.1 µM, first compound 0.316 µM) was 14% and the viability, T/C (second compound 0.1 µM, first compound 1 µM) was 5.7%. For the same molecule, the viability, T/C [9] was 17.4%, the viability, T/C [10] was 18.3% and the viability, T/C [11] was 17.3%. For the same molecule, the viability, T/C [12] was 14.5%, the viability, T/C (second compound 0.316 µM, first compound 0.316 µM) was 15.6% and the viability, T/C (second compound 0.316 µM, first compound 1 µM) was 5.23%. The viability, T/C [13] was 21.4%, the viability, T/C [14] was 18.1% and the viability, T/C [15] was 18%. It also gave a viability, T/C [16] of 19.1%, a viability, T/C (second compound 1 µM, first compound 0.316 µM) of 12.5% and a viability, T/C (second compound 1 µM, first compound 1 µM) of 6.46%. It also gave a viability, T/C [17] of 20.1%, a viability, T/C [18] of 14.8% and a viability, T/C [19] of 18.4%. It also gave a viability, T/C [20] of 18.5%, a viability, T/C (second compound 3.16 µM, first compound 0.316 µM) of 15.3% and a viability, T/C (second compound 3.16 µM, first compound 1 µM) of 5.6%. The viability, T/C [21] was 18.1%, the viability, T/C [22] was 18.9% and the viability, T/C [23] was 18.2%. For the same molecule, the viability, T/C [24] was 15.8%, the viability, T/C (second compound 10 µM, first compound 0.316 µM) was 14.8% and the viability, T/C (second compound 10 µM, first compound 1 µM) was 5.55%.
